≈ marks a conversion by molar mass, not a printed value. Read-outs that look alike come from different tables or passages of the source.

The term IC50 denotes the concentration that gives 50% inhibition. As usually defined, the solubility is the concentration that dissolves in the medium under given conditions.

In series [1] the test system is POLR2A Ser2 phosphorylation (CDK9). The series can be described thus: POLR2A Ser2 phosphorylation imaging assay in MCF-7 cells. It counts as cell-based. The note with it: Homo sapiens, MCF7, 2 h, read-out: POLR2A Ser2 phosphorylation IC50. The procedure, abridged: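 MCF-7 cells were fixed, permeabilised and immunostained for POLR2A phospho-Ser2, then imaged by high-content microscopy. Levels were normalised to controls and IC50 values derived.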

In series [2] the test system is MCF-7 cells. In words: Cellular proliferation EdU assay, MCF-7. It is filed as cell-based. The settings on record: Homo sapiens, MCF7, 48 h, EdU assay, two days; read-out: MCF-7 IC50. The procedure, abridged: (§1)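 MCF-7 (800 cells/well) and OVCAR3 (1200 cells/well) in RPMI with 10% FBS exposed to compounds for two days at 37 °C.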
Series [3] has as its system OVCAR3 cells. The series can be described thus: Cell proliferation CyQUANT assay, OVCAR3. It is filed as cell-based. The settings on record: Homo sapiens, OVCAR-3, 168 h; CyQUANT cell counts, 7 days. How it is done: (§2) An imaging-based assay was used to investigate changes in cell number in OVCAR3 cells (CCNE1-amplified ovarian cancer cell line) and SKOV3 cells (non-amplified ovarian cancer cell line) treated with test compounds.
(§3) Cells were plated in 384 well plates (Perkin-Elmer 6057300) in RPMI-1640/10% FBS/1× L-Glu at 500 cells per well in 30 μL and incubated with test compound at 37° C. and 5% CO2 for 7 days. Cells were then stained using the CyQuant Direct Cell Proliferation Assay Kit (Thermo Cat #C7026) in accordance with the kit protocol. The stained cells were imaged using an Operetta high content imager to generate cell counts and IC50 values were calculated relative to DMSO controls.

Series [4] deals with SKOV3 cells. The series can be described thus: Cell proliferation CyQUANT assay, SKOV3. The note with it: Homo sapiens, SK-OV-3, 168 h; CyQUANT cell counts, 7 days. It counts as cell-based. The method, then:
as §2, §3

Series [5] concerns OVCAR3 human ovarian cancer xenograft. The series can be described thus: Anti-tumor effect in CCNE1 amplified ovarian xenograft model OVCAR3. It counts as in vivo, mice. The settings on record: for % INHIBITION: 28 days. How it is done:
15 Million OVCAR3 human ovarian cells were implanted subcutaneously in the right flank of female CB17 SCID mice. Mice were randomized into groups of 8 when average tumor volume reached approximately 160 mm^3. […] Palbociclib was dosed orally once daily.

In series [6] the test system is CTG-3298 human CDK4/6 resistant ER+ breast cancer xenograft. In words: Anti-tumor effect in CTG-3298 CDK4/6 resistant ER+ breast cancer xenograft model. It counts as in vivo, mice. The note with it: for % INHIBITION (end of dosing): 28 days. The method, then:
CTG-3298 ER+ breast xenograft tumors were harvested from donor mice and cut into fragments approximately 50 mm^3 in volume and then reimplanted adjacent to the #3 mammary fat pad.
CTG-3298 ER+ Breast PDX fragments were implanted orthotopically adjacent to the #3 mammary fat pad using a 10-gauge trocar in female NSG mice. […] Palbociclib was dosed orally once daily.

In series [7] the test system is CTG-3283 human CDK4/6 resistant ER+ breast cancer xenograft. The series can be described thus: Anti-tumor effect in CTG-3283 CDK4/6 resistant ER+ breast cancer xenograft model. It counts as in vivo, mice. The settings on record: for % INHIBITION (end of dosing): 28 days. The method, then:
CTG-3283 ER+ breast xenograft tumors were harvested from donor mice and cut into fragments approximately 50 mm^3 in volume and then reimplanted adjacent to the #3 mammary fat pad.
CTG-3283 ER+ Breast PDX fragments were implanted orthotopically adjacent to the #3 mammary fat pad using a 10-gauge trocar in female NSG mice. […] Palbociclib was dosed orally once daily.

Series [8] concerns OVCAR3 cells. The series can be described thus: Effect on cell cycle in OVCAR3 cell line (flow cytometry). It counts as cell-based, human. The settings on record: 20 to 24 hours, 0.03, 0.1, 0.3, 1, and 3 μM. How it is done:
Compounds were tested in the CCNE1-amplified ovarian cell line OVCAR3 to assess their effect on cell cycle phases G1 and S and potential off-target effects on cell cycle phases G2 and M.
OVCAR3 cells were seeded at 60,000 cells per well in 24 well plates, 4 wells per sample, in RPMI with 10% Fetal bovine serum. Test compounds were diluted in 96 well plates in dimethyl sulfoxide (DMSO) and then added to the wells containing the cells. The 24 well plates were placed in an incubator maintained at 37° C. and 5% CO2 and incubated for 20 to 24 hours. The next day an EdU assay was performed following the manufacturer's protocol (Thermo Fisher, C10425 EdU Alexa Fluor 488). Antibody staining was carried out using PE Mouse Anti-Cleaved PARP (BD Biosciences Catalog No. 552933) and 4′,6-diamidino-2-phenylindole (DAPI). Cells were then analyzed by flow cytometry.
On the technique in general: In flow cytometry, cells or beads pass a laser one at a time.

Series [9] relates to pRB (S780) in OVCAR3 human ovarian cancer xenograft. In words: Pharmacodynamic effect (pRB) in OVCAR3 xenograft model. It counts as in vivo, mice. The note with it: 3 days dosing, Western blot. The method, then:
15 Million OVCAR3 human ovarian cells were implanted subcutaneously in the right flank of female CB17 SCID mice. […] Palbociclib was dosed orally once daily.

The test system of series [10] is pRB (S780) in MCF7-PC1 human palbociclib resistant ER+ breast cancer xenograft. The series can be described thus: Pharmacodynamic effect (pRB) in MCF7-PC1 palbociclib resistant ER+ breast cancer xenograft model. It counts as in vivo, mice. The settings on record: 3 days dosing, Western blot. The method, then:
MCF7-PC1 cells were generated as described in Example 70.
Palbociclib was dosed orally once daily.
A general note: Immunoblotting shows a protein as a band on a membrane.

Series [11] deals with pRB (S780) in CTG-3298 human CDK4/6 resistant ER+ breast cancer xenograft. In words: Pharmacodynamic effect (pRB) in CTG-3298 xenograft model. The note with it: 3 days dosing, Western blot.
Description: A study was conducted to evaluate the in vivo pharmacodynamic response of monotherapy with a CDK2 inhibitor and combination therapy with a CDK2 inhibitor and palbociclib in a CTG-3298 human CDK4/6 resistant ER+ breast cancer xenograft model.
CTG-3298 fragments were implanted adjacent to the #3 mammory fat pad of female NSG mice. […] Mice were treated for 3 days with vehicle (0.5% HPMC/0.1% Tween 80), palbociclib at 50 mg/kg, test compound at 30 or 60 mg/kg, or the combination of test compound and palbociclib. Test compound was dosed orally twice daily 10 hours apart on day one and two and a single dose in the morning on day 3. Palbociclib was dosed orally once daily. When administered in combination with test compound, palbociclib was dosed 4 hours after the morning dose of test compound on days one and two and 15 minutes after the morning dose of test compound on day 3. The time course of sample collection was as follows: (i) the test compound at 30 mg/kg groups with and without palbociclib treatment were collected at 2, 4 and 8 hours; (ii) all other groups were collected at 2, 8, and 24 hours. pRB (S780) was evaluated by western blotting.
The test system of series [12] is pRB (S780) in CTG-3283 human CDK4/6 resistant ER+ breast cancer xenograft. In words: Pharmacodynamic effect (pRB) in CTG-3283 xenograft model. The note with it: 3 days dosing, Western blot.
Description: A study was conducted to evaluate the in vivo pharmacodynamic response of monotherapy with a CDK2 inhibitor and combination therapy with a CDK2 inhibitor and palbociclib in a CTG-3283 human CDK4/6 resistant ER+ breast cancer xenograft model.
CTG-3283 fragments were implanted adjacent to the #3 mammory fat pad of female NSG mice. […] Mice were treated for 3 days with vehicle (0.5% HPMC/0.1% Tween 80), palbociclib at 50 mg/kg, test compound at 30 or 60 mg/kg, or the combination of test compound and palbociclib. Test compound was dosed orally twice daily 10 hours apart on day one and two and a single dose in the morning on day 3. Palbociclib was dosed orally once daily. When administered in combination with test compound, palbociclib was dosed 4 hours after the morning dose of test compound on days one and two and 15 minutes after the morning dose of test compound on day 3. The time course of sample collection was as follows: (i) the test compound at 30 mg/kg groups with and without palbociclib treatment were collected at 2, 4, and 8 hours; (ii) all other groups were collected at 2, 8, and 24 hours. pRB (S780) was evaluated by western blotting.
In series [13] the test system is pHH3 in T47D P1 human palbociclib resistant ER+ breast cancer xenograft. The series can be described thus: Pharmacodynamic effect in T47D P1 palbociclib resistant ER+ breast xenograft model. The note with it: 3 days dosing, Western blot.
Description: A study was conducted to evaluate the in vivo pharmacodynamic response of monotherapy with a CDK2 inhibitor and combination therapy with a CDK2 inhibitor and palbociclib in a T47D P1 human palbociclib resistant ER+ breast cancer xenograft model.
T47D P1 cells were generated to be resistant to palbociclib through chronic treatment with palbociclib over the course of about three months with increasing concentrations up to 3 μM. The resulting cells (T47D P1) were then banked for use in subsequent experiments. T47D P1 cells were grown in phenol red free RPMI 1640 supplemented with 10% fetal bovine serum and 3 μM palbociclib. Cells were harvested with 0.25% trypsin and resuspended in PBS/phenol red free Matrigel (50/50).
10 Million T47D P1 cells were implanted orthotopically into the #3 mammary fat pad of female NSG mice. 0.5 mg 90 day release 17B-estradiol pellets from Innovative Research of America were implanted subcutaneously three days prior to cell implant. […] The time course of sample collection was as follows: (i) the test compound at 30 mg/kg groups with and without palbociclib treatment were collected at 2, 4 and 8 hours; and (ii) all other groups were collected at 2, 8 and 24 hours. pHH3 was evaluated by western blotting.
Series [14] addresses CDK2:CCNE1 (Homo sapiens (Human), UniProt P24941). The series can be described thus: NanoBRET assay in MCF-7 cells, CDK2. The settings on record: transfected MCF-7 cells, 2 hours, n = 1 or average. It is filed as cell-based. In a few lines:
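In live MCF-7 cells, compound added followed by NanoBRET TE Tracer K-9 (stock 200 μM) for CDK2, 2 h at 37° C, 5% CO2.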

Series [15] concerns the target CDK1:CCNB1 (Homo sapiens (Human), UniProt P06493). The series can be described thus: NanoBRET assay in MCF-7 cells, CDK1. It counts as cell-based. The note with it: NanoBRET, transfected MCF-7 cells, 2 hours; n = 1 or average; read-out: CDK1 IC50. The procedure, abridged:
(§4)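 Transiently transfected MCF-7 cells expressing CDK1:CCNB1 or CDK4:CCND1 were treated with compound plus tracer (CDK1: Tracer K-9, 400 μM stock; CDK4: Tracer K-7, 100 μM stock) for 2 h at 37 °C.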
Background: BRET reads energy transfer from a luciferase to a nearby fluorophore.

Series [16] deals with CDK4:CCND1 (Homo sapiens (Human), UniProt P11802). In words: NanoBRET assay in MCF-7 cells, CDK4. The note with it: NanoBRET, transfected MCF-7 cells, 2 hours; n = 1 or average; read-out: CDK4 IC50. It counts as cell-based. In a few lines:
as §4

Series [17] relates to NPM phosphorylation (Thr199, CDK2-cyclin E complex). The series can be described thus: NPM phosphorylation imaging assay in MCF-7 cells. It counts as cell-based. The note with it: Homo sapiens, MCF7, 2 hours, 4N DNA cells. The procedure, abridged: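 MCF-7 cells were fixed, permeabilised and immunostained, then imaged for phospho-NPM (Thr199), a CDK2-cyclin E site. Analysis was gated on 4N-DNA cells by Hoechst staining. Signals were normalised to controls and fitted for IC50.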

Series [18] deals with OVCAR3 cells. The series can be described thus: Cellular proliferation EdU assay, OVCAR3. It is filed as cell-based, human. The settings on record: Homo sapiens, OVCAR-3, 48 h, EdU assay, two days; read-out: OVCAR3 IC50. The procedure, abridged: as §1
Series [19] can be described thus: CLint assessment in human hepatocytes (HH). It is filed as in vitro ADME. Also on record: unit not given here. The settings on record: pH 7.4. How it is done: Samples were shaken at 800 rpm for 2 minutes and centrifuged at 4000 rpm for 20 minutes at 4° C. to pellet precipitated protein. The supernatant fraction was diluted 1:5 with deionized water, shaken at 1000 rpm for 2 minutes, and further diluted 1:1 with deionized water. Samples were analyzed by LC-MS/MS.

A short description of series [20]: CLint assessment in human liver microsomes (HLM). It counts as in vitro ADME. The settings on record: 1 μM. The procedure, abridged: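 Microsomes preincubated 8 min with NADPH, then compound added and incubated 30 min at 37° C. Remaining compound measured by LC-MS/MS. t1/2 and CLint calculated, with CLint scaled to incubation volume per mg microsomal protein.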

Series [21] in a line: Aqueous thermodynamic solubility, shake-flask. It is filed as physicochemical. The settings on record: aqueous phosphate buffer, 25 °C, pH 7.4, aqueous buffer, thermodynamic from solid, phosphate buffer 0.1 M, pH 7.4, 24 hours. In a few lines:
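Dried compound (after DMSO evaporation) was equilibrated in 0.1 M phosphate buffer pH 7.4 with stirring for 24 h at 25° C. Undissolved material was removed by double centrifugation, and the supernatant was diluted in water and quantified by UPLC/MS/MS.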

The mark [22] stands for this setting: Compound 6 at 30 mg/kg orally twice daily.
Where [23] appears, read: Compound 6 at 60 mg/kg orally twice daily.

Chain of CDK4:CCND1 (P11802 whole entry): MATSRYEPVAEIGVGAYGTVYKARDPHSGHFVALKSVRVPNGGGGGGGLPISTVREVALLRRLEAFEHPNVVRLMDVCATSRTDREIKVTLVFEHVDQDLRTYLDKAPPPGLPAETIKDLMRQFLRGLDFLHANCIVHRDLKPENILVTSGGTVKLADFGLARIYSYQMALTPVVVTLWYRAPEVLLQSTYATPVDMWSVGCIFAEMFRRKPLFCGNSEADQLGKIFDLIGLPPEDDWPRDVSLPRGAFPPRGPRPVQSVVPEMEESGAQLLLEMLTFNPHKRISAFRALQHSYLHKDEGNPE
Chain of CDK4:CCND1 (P24385 whole entry partner): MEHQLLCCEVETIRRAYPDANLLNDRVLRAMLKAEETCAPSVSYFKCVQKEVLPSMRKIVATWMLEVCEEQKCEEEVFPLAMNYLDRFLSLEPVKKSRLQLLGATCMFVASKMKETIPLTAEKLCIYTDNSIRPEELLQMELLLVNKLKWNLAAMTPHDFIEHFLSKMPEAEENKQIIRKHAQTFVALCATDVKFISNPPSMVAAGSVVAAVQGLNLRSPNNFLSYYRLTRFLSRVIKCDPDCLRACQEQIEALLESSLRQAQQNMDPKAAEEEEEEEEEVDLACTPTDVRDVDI
Chain of CDK1:CCNB1 (P06493 whole entry): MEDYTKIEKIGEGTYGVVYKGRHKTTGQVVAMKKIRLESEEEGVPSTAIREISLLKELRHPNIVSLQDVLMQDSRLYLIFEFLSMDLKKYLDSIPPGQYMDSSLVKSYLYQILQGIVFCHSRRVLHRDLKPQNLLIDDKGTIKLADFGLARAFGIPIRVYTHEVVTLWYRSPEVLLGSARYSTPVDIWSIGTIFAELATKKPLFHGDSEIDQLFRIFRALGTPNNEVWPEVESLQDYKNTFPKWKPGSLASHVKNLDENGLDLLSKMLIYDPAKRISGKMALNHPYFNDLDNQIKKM
Chain of CDK1:CCNB1 (P14635 whole entry partner): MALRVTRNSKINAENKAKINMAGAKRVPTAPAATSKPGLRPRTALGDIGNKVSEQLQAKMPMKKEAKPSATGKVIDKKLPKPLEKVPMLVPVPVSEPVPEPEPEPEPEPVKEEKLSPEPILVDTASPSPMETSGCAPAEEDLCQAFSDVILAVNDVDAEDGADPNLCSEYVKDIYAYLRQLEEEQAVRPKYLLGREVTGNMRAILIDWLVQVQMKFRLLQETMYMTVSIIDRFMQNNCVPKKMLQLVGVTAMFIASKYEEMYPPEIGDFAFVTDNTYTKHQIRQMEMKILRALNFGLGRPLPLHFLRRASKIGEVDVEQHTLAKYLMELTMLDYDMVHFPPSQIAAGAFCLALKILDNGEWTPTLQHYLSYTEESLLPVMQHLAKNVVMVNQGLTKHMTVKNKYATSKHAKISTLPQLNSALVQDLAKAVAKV

Consider `CCNS(=O)(=O)N1CC[C@H](Nc2nc(N[C@@H](CC)[C@@H](C)O)nc3c2ncn3CC)C1` [Compound 6, (S)—N-ethyl-3-((9-ethyl-2-(((2R,3S)-2-hydroxypentan-3-yl)amino)-9H-purin-6-yl)amino)pyrrolidine-1-sulfonamide], for which the IC50 is > 19.3 µM in [1], 278 nM in series [2], 77 nM in [3] and 1960 nM in [4]. For the same molecule, the entries for the “% INHIBITION” value in series [5] (setting [22]), in series [5] (Compound 6 at 100 mg/kg orally twice daily) and in series [5] (Compound 6 at 150 mg/kg orally twice daily) were 31%, 94% and >100%, respectively. The “durability on monitoring for regrowth” value in series [5] (Compound 6 at 150 mg/kg, compared to Compound 6 at 100 mg/kg group) was “showed increased durability”. The “% INHIBITION (end of dosing)” value in series [6] (setting [22]) is given as 82%; in series [6] (setting [23]), 87%; in [7] (setting [22]) it was 28%; in series [7] (setting [23]), 21%. Besides, in series [6] (Compound 6 at 60 mg/kg without palbociclib), the durability of response result is reported as “more durable response”. Moreover, the tumor growth inhibition entry in series [7] (CTG-3283 xenograft, Compound 6 at 30 and 60 mg/kg monotherapy or combination with palbociclib) is “lower inhibition of tumor growth”. Further, the “effect on cell cycle phase” value in series [8] is “increased the population of cells in the G0 and G1 phases”. Also, the pRB levels result in [9] was “time dependent inhibition of pRB”; in [10], “time dependent inhibition of pRB”; in series [11], “dose dependent inhibition of pRB”; in series [12], “dose dependent inhibition of pRB”. Moreover, the pHH3 levels entry in series [13] was “time dependent inhibition of pHH3”.

Take `CC[C@H](CO)Nc1nc(N[C@H]2CCN(S(=O)(=O)NC)C2)c2ncn(CC)c2n1` [Example 47, (S)-3-((9-ethyl-2-(((R)-1-hydroxybutan-2-yl)amino)-9H-purin-6-yl)amino)-N-methylpyrrolidine-1-sulfonamide]: the IC50 in [14] was 35 nM; in [15], 562 nM; in [16] it was 7.4 µM; in [17], 152 nM; in series [1] (MCF-7 cells, 2 hours), > 30 µM; in [2] it was 705 nM. For the same molecule, in series [18], the IC50 was determined as 185 nM. Also, in series [19], the microsomal CLint at 1 μM is < 1. Also, the “HLM CLint” value in series [20] came to 26 µL/min/mg. For the same molecule, the solubility at 24 h in series [21] was found to be 253 µM (≈ 104 µg/mL).

Values taken from patent US20250197425A1, “2,6,9-TRISUBSTITUTED PURINES” (ASTRAZENECA AB, priority 2022, published 2025).
